Read-outs that look alike come from different tables or passages of the source.
Target: Ba/F3 V617F cells (Homo sapiens, UniProt O60674, V617F, cells depend on it)
Test: Proliferation assay (Cell Titer-Glo, 72 h) utilizing Ba/F3 V617F cells
Type: cell-based, mouse
Protocol: Ba/F3 V617F cells are maintained and plated in RPMI with 10% FBS. Plating density for these cells is 1×10^5 cells/mL.
The cells were resuspended in a corresponding medium at a required cell density (see above). 100μ of cell suspension was added to each well of a flat bottom 96 well white plate. The compound was serially diluted in DMSO from 5 mM in 3-fold dilutions, and then diluted 1:250 in the RPMI 1640 medium containing 5% FBS and pen/strep. 100 μL of resulting 2× compound solution was added per well in duplicate and the cells were allowed to proliferate for 72 hours at 37° C.
Proliferation was measured using Cell Titer-Glo. The substrate was thawed and allowed to come to ambient temperature. After removal of top 100 μL of medium from each well, 100 μL of the premixed Cell Titer-Glo reagent was added to each well. The plates were mixed on an orbital shaker for three minutes to induce lysis and incubated at ambient temperature for an additional five minutes to allow the signal to equilibrate. The Luminescence was read on the Wallac Plate Reader.
The results of the ability of the compounds of the invention to inhibit JAK2 activity, when tested in the above assay utilizing Ba/F3 V617F cells, are shown in the following Tables 2-3 wherein the level of activity (i.e., the IC50) for each compound is indicated in Tables 2-3. The compound numbers in Tables 2-3 refers to the compounds disclosed herein as being prepared by the methods disclosed herein: […]

[1] = Ba/F3 V617F cells, proliferation, level of activity to inhibit JAK2, read-out: IC50 (the source's name)
[2] = Ba/F3 V617F cells, proliferation, level of activity given as class symbol, read-out: IC50 (the source's name)
[3] = inhibition of JAK2 activity, proliferation of Ba/F3 V617F cells, read-out: IC50 (the source's name)

Sequence of Ba/F3 V617F cells (O60674 whole entry V617F): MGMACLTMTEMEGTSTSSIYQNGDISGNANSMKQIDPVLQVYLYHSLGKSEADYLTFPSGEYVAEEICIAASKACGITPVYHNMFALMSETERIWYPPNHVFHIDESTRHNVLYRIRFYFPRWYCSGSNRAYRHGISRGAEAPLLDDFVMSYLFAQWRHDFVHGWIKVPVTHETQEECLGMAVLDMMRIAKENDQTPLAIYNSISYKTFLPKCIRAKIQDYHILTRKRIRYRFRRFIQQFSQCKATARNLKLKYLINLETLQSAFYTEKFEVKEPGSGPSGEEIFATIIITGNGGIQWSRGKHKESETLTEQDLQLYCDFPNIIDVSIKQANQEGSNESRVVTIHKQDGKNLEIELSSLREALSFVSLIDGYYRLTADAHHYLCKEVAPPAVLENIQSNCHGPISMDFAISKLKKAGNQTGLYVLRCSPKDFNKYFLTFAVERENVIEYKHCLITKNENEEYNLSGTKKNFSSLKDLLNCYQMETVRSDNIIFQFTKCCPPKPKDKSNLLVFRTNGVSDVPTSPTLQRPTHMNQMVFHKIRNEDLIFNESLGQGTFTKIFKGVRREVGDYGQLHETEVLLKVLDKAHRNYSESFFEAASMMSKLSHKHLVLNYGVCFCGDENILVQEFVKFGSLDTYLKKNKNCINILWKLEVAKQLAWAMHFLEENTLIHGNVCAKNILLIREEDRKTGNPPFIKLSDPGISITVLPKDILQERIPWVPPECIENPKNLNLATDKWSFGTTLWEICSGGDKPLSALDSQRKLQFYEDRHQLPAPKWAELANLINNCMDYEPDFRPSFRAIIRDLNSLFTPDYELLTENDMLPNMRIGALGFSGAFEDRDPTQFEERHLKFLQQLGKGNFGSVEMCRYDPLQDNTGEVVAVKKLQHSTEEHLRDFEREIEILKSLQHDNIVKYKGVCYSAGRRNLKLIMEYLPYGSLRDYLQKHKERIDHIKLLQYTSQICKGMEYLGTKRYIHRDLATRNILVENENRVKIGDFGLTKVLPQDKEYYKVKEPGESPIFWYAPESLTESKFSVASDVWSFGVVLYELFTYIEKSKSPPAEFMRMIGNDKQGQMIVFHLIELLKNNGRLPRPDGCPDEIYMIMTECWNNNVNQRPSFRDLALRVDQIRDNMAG

Row | SMILES | GI50 [1] [nM] | also measured
1 | Cc1cc(Nc2nccc(-c3ccc(Cc4ccccc4)nc3)n2)ccc1N1CC2(C)CN(C)CC(C)(C1)C2 [compound 90, 4-(6-(benzyl)pyridin-3-yl)-N-(3-methyl-4-(1,5,7-trimethyl-3,7-diazabicyclo[3.3.1]nonan-3-yl)phenyl)pyrimidin-2-amine] | < 1000 | 
2 | Cc1cc(Nc2nccc(-c3ccc(N4C[C@@H]5C[C@H]4CO5)nc3)n2)ccc1N1C[C@@H]2C[C@H]1CN2S(C)(=O)=O [compound 264, 4-(6-((1S,4S)-2-oxa-5-azabicyclo[2.2.1]heptan-5-yl)pyridin-3-yl)-N-(3-methyl-4-((1S,4S)-5-(methylsulfonyl)-2,5-diazabicyclo[2.2.1]heptan-2-yl)phenyl)pyrimidin-2-amine] |  | GI50 [2]: < 1000 nM
3 | CC(=O)Nc1ccc(-c2ccnc(Nc3ccc(N4C[C@@H]5C[C@H]4CN5C)nc3)n2)cn1 [compound 55, 4-(6-(methylcarbonylamino)pyridin-3-yl)-N-(6-((1S,4S)-5-methyl-2,5-diazabicyclo[2.2.1]heptan-2-yl)pyridin-3-yl)pyrimidin-2-amine] |  | GI50 [3]: 1000 to 10000 nM
4 | CC(C)N1C[C@@H]2C[C@H]1CN2c1ccc(Nc2nccc(-c3ccc(N4CCOCC4)nc3)n2)cc1Cl [compound 263, 4-(6-(morpholin-4-yl)pyridin-3-yl)-N-(3-chloro-4-((1S,4S)-5-(1-methylethyl)-2,5-diazabicyclo[2.2.1]heptan-2-yl)phenyl)pyrimidin-2-amine] |  | GI50 [2]: < 1000 nM
5 | Cc1cc(Nc2nccc(-c3cnc4c(c3)OC(C)(C)C(=O)N4)n2)ccc1N1C[C@@H]2C[C@H]1CO2 [compound 27, 4-(2,2-dimethyl-3-oxo-3,4-dihydro-2H-pyrido[3,2-b][1,4]oxazin-7-yl)-N-(3-methyl-4-((1S,4S)-5-oxa-2-azabicyclo[2.2.1]heptan-2-yl)phenyl)pyrimidin-2-amine] | < 1000 | 
6 | CCC(=O)N1C[C@@H]2C[C@H]1CN2c1ccc(Nc2nccc(-c3ccc(NC(C)=O)nc3)n2)cc1C [compound 149, 4-(6-(acetamido)pyridin-3-yl)-N-(3-methyl-4-((1S,4S)-5-ethylcarbonyl-2,5-diazabicyclo[2.2.1]heptan-2-yl)phenyl)pyrimidin-2-amine] | < 1000 | 
7 | Cc1cc(Nc2nccc(-c3cnc4c(c3)OC(C)(C)C(=O)N4)n2)cnc1N1C[C@@H]2C[C@H]1CN2C [compound 138, 4-(2,2-dimethyl-3-oxo-3,4-dihydro-2H-pyrido[3,2-b][1,4]oxazin-7-yl)-N-(5-methyl-6-((1S,4S)-5-methyl-2,5-diazabicyclo[2.2.1]heptan-2-yl)pyridin-3-yl)pyrimidin-2-amine] |  | GI50 [3]: < 1000 nM
8 | Cc1cc(Nc2nccc(-c3cnc4c(c3)OC(C)(C)C(=O)N4)n2)ccc1N1CC2(C)CN(C)CC(C)(C1)C2 [compound 207, 4-(2,2-dimethyl-3-oxo-3,4-dihydro-2H-pyrido[3,2-b][1,4]oxazin-7-yl)-N-(3-methyl-4-(1,5,7-trimethyl-3,7-diazabicyclo[3.3.1]nonan-3-yl)phenyl)pyrimidin-2-amine] |  | GI50 [2]: < 1000 nM
9 | CN1C2CCC1CN(c1ccc(Nc3nccc(-c4cnc5c(c4)OC(C)(C)C(=O)N5)n3)cc1)C2 [compound 157, 4-(2,2-dimethyl-3-oxo-3,4-dihydro-2H-pyrido[3,2-b][1,4]oxazin-7-yl)-N-(4-(8-methyl-3,8-diazabicyclo[3.2.1]octan-3-yl)phenyl)pyrimidin-2-amine] | < 1000 | 
10 | Cc1cc(Nc2nccc(-c3ccc(N)nc3)n2)cnc1N1C[C@@H]2C[C@H]1CN2C [compound 145, 4-(6-aminopyridin-3-yl)-N-(5-methyl-6-((1S,4S)-5-methyl-2,5-diazabicyclo[2.2.1]heptan-2-yl)pyridin-3-yl)pyrimidin-2-amine] |  | GI50 [3]: < 1000 nM
11 | CCOCCCNc1ccc(-c2ccnc(Nc3ccc(N4C[C@@H]5C[C@H]4CO5)c(C)c3)n2)cn1 [compound 200, 4-(6-(3-ethoxypropyl)aminopyridin-3-yl)-N-(3-methyl-4-((1S,4S)-5-oxa-2-azabicyclo[2.2.1]heptan-2-yl)phenyl)pyrimidin-2-amine] |  | GI50 [2]: < 1000 nM
12 | Cc1cc(Nc2nccc(-c3ccc(OC4CCOCC4)nc3)n2)ccc1N1C2CCC1CC(N(C)C)C2 (stereo not drawn) [compound 283, 4-(6-(tetrahydropyran-4-yloxy)pyridin-3-yl)-N-(3-methyl-4-(3-(dimethylamino)-8-azabicyclo[3.2.1]octan-8-yl)phenyl)pyrimidin-2-amine] |  | GI50 [2]: < 1000 nM
13 | CN1C[C@@H]2C[C@H]1CN2c1ccc(Nc2nccc(-c3ccc4c(c3)SCC(=O)N4)n2)cc1 [compound 239, 4-(3-oxo-3,4-dihydro-2H-benzo[b][1,4]thiazin-7-yl)-N-(4-((1S,4S)-5-methyl-2,5-diazabicyclo[2.2.1]heptan-2-yl)phenyl)pyrimidin-2-amine] |  | GI50 [2]: < 1000 nM
14 | Cc1cc(Nc2nccc(-c3ccc(N(C)C)nc3)n2)cnc1N1C[C@@H]2C[C@H]1CN2C [compound 61, 4-(6-(dimethylamino)pyridin-3-yl)-N-(5-methyl-6-((1S,4S)-5-methyl-2,5-diazabicyclo[2.2.1]heptan-2-yl)pyridin-3-yl)pyrimidin-2-amine] |  | GI50 [3]: < 1000 nM

More lines, main results first:

Row | GI50 [1] [nM] | SMILES | also measured
15 | < 1000 | CN1C[C@@H]2C[C@H]1CN2c1ccc(Nc2nccc(-c3ccc(NC4CCCCC4)nc3)n2)cc1C(F)(F)F [compound 94, 4-(6-(cyclohexylamino)pyridin-3-yl)-N-(3-trifluoromethyl-4-((1S,4S)-5-methyl-2,5-diazabicyclo[2.2.1]heptan-2-yl)phenyl)pyrimidin-2-amine] | 
16 | 1000 to 10000 | CN1C[C@@H]2C[C@H]1CN2c1ccc(Nc2nccc(-c3ccc(N4CCOCC4)cc3)n2)cc1F [compound 47, 4-(4-(morpholin-4-yl)phenyl)-N-(3-fluoro-4-((1S,4S)-5-methyl-2,5-diazabicyclo[2.2.1]heptan-2-yl)phenyl)pyrimidin-2-amine] | 
17 | 1000 to 10000 | CN1C[C@@H]2C[C@H]1CN2c1ccc(Nc2nccc(-c3ccc(NC(=O)CN4CCOCC4)nc3)n2)cc1 [compound 142, 4-(6-(2-(morpholin-4-yl)acetamido)pyridin-3-yl)-N-(4-((1S,4S)-5-methyl-2,5-diazabicyclo[2.2.1]heptan-2-yl)phenyl)pyrimidin-2-amine] | 
18 | < 1000 | CN1C[C@@H]2C[C@H]1CN2c1ccc(Nc2nccc(-c3cnc4[nH]ccc4c3)n2)cc1F [compound 23, 4-(1H-pyrrolo[2,3-b]pyridin-5-yl)-N-(3-fluoro-4-((1S,4S)-5-methyl-2,5-diazabicyclo[2.2.1]heptan-2-yl)phenyl)pyrimidin-2-amine] | 
19 | 1000 to 10000 | CC1CCCN(c2cnc(-c3ccnc(Nc4ccc(N5C[C@@H]6C[C@H]5CN6C)c(F)c4)n3)cn2)C1 (stereo partly drawn) [compound 127, 4-(5-(3-methylpiperidin-1-yl)pyrazin-2-yl)-N-(3-fluoro-4-((1S,4S)-5-methyl-2,5-diazabicyclo[2.2.1]heptan-2-yl)phenyl)pyrimidin-2-amine] | 
20 | < 1000 | Cc1cc(Nc2nccc(-c3ccc(N4CCOCC4)nc3)n2)ccc1N1CCN2CCC1C2 (stereo not drawn) [compound 120, 4-(6-(morpholin-4-yl)pyridin-3-yl)-N-(3-methyl-4-(1,4-diazabicyclo[3.2.1]octan-4-yl)phenyl)pyrimidin-2-amine] | 
21 | < 1000 | CN1C[C@@H]2C[C@H]1CN2c1ccc(Nc2nccc(-c3cnc4c(c3)OCCN4)n2)cc1C(F)(F)F [compound 98, 4-(3,4-dihydro-2H-pyrido[3,2-b][1,4]oxazin-7-yl)-N-(3-trifluoromethyl-4-((1S,4S)-5-methyl-2,5-diazabicyclo[2.2.1]heptan-2-yl)phenyl)pyrimidin-2-amine] | 

Reference: US9624229B2, “Pyrimidine-2-amine compounds and their use as inhibitors of JAK kinases” (Rigel Pharmaceuticals, Inc., priority 2008, dated 2017)
